The values that follow come from PMC11532403 (Signal Transduction and Targeted Therapy, 2024).

This data set in a line: Plasma protein binding, rapid equilibrium dialysis. The conditions noted are these: dog, read-out: Plasma protein binding rate (converted). Type of data set: in vitro ADME.

As for `COc1ccc(CN2C3CC2CN(c2ccc(-c4cc(N5CC(C)(O)C5)cn5ncc(C#N)c45)cn2)C3)cn1` [SY-5007, 6-(3-hydroxy-3-methylazetidin-1-yl)-4-(6-(6-((6-methoxypyridin-3-yl)methyl)-3,6-diazabicyclo[3.1.1]heptan-3-yl)pyridin-3-yl)pyrazolo[1,5-a]pyridine-3-carbonitrile], the fraction unbound is 0.042.
